The source of these data is US7786043B2, “2-(pyridin-2-yl)-pyrimidines and their use for controlling harmful fungi” (BASF Aktiengesellschaft, priority 2004, dated 2010).

Each structure is given as a SMILES string.

What all share (format): in vivo
One assay has as its system Alternaria solani. Description: Use Example 1: activity against early blight caused by Alternaria solani (tomato plants). Conditions: 250 ppm, tomato plants sprayed one day before infection, rated after 5 days; untreated plants 90% infected.
The next assay concerns Botrytis cinerea. Description: Use Example 2: activity against gray mold on bell pepper leaves caused by Botrytis cinerea, protective application. The following applies: 250 ppm, rated after 5 days, untreated plants 90% infected. Here is the method:
(§1) For the use examples 1 to 5 the active compounds were prepared separately as a stock solution with 0.25% by weight of active compound in acetone or DMSO. 1% by weight of the emulsifier Wettol® EM 31 (wetting agent having emulsifying and dispersing action based on ethoxylated alkylphenols) was added to this solution, and the solution was diluted with water to the desired concentration.
Bell pepper leaves of the cultiva “Neusiedler Ideal Elite” were, after 2 to 3 leaves had become well developed, sprayed to runoff point with an aqueous suspension having the concentration of active compounds stated below. The next day, the treated plants were inoculated with an aqueous spore suspension of Botrytis cinerea in a 2% aqueous biomalt solution having a density of 1.7×10^6 spores/ml. The plants were then placed in a climatized chamber at temperatures between 22 and 24° C. and at high atmospheric humidity. After 5 days, the extent of the fungal infection was determined visually by the infected leaf area.

Assay [1] has as its system Erysiphe [syn. Blumeria] graminis forma specialis. tritici. Description: Use Example 3: activity against mildew of wheat caused by Erysiphe [syn. Blumeria] graminis forma specialis tritici. Conditions: 250 ppm, wheat seedlings, protective, rated after 7 days; untreated plants 90% infected. As to the method: as §1
Leaves of potted wheat seedlings of the cultiva “Kanzler” were sprayed to runoff point with an aqueous suspension having the concentration of active compounds stated below. 24 h after the spray coating had dried on, the leaves were dusted with the spores of mildew of wheat (Erysiphe [syn. Blumeria] graminis form a specialis. tritici). The plants were then placed in a greenhouse at temperatures between 20 and 24° C. and at 60-90% relative atmospheric humidity. After 7 days, the extent of the fungal infection was determined visually by the infected leaf area.

For a further assay, the system named is Plasmopara viticola. Description: Use Example 4: activity against peronospora of grapevines caused by Plasmopara viticola. Conditions: 63 ppm, potted grapevines, protective; untreated plants 90% infected. Here is the method: as §1
Leaves of potted grapevines were sprayed to runoff point with an aqueous suspension having the concentration of active compounds stated below. The next day, the undersides of the leaves were inoculated with an aqueous sporangia suspension of Plasmopara viticola. The plants were then initially placed in a water-vapor-saturated chamber for 48 h and then in a greenhouse at temperatures between 20 and 30° C. After this period of time, the plants were, to promote sporangial eruption, again placed in the water-vapor-saturated chamber for 16 h. The extent of the development of the infection on the undersides of the leaves was then determined.

The subject of another assay is Puccinia recondita. Description: Use Example 5: curative activity against brown rust of wheat caused by Puccinia recondita. Conditions: 250 ppm, wheat seedlings, curative (sprayed one day after inoculation), 7 days; untreated plants 90% infected. As to the method: as §1
Leaves of potted wheat seedlings of the cultivar “Kanzler” were inoculated with a spore suspension of brown rust (Puccinia recondita). The pots were then placed in a chamber at high atmospheric humidity (90 to 95%) and 20 to 22° C. for 24 hours. During this time, the spores germinated and the germ tubes penetrated into the leaf tissue. The next day, the infected plants were sprayed to runoff point with an aqueous suspension having the active compound concentration stated below. The suspension or emulsion had been prepared as described above. After the spray coating had dried, the test plants were cultivated in a greenhouse at temperatures between 20 and 22° C. and at 65 to 70% relative atmospheric humidity for 7 days. The extent of the rust fungus development on the leaves was then determined.

Turning to `Fc1ccc(-c2cccc(-c3ncc4c(n3)CCCCC4)n2)cc1` [Example 7], the infection result with Alternaria solani and in the assay with Plasmopara viticola was “no infection” each time. Further, the “infection (infected leaf area)” value with Botrytis cinerea is “no infection”; in assay [1], 20%.
As for `Cc1ccc(-c2ncc3c(n2)CCCCC3)nc1-c1ccccc1` [Example 6], the “infection (infected leaf area)” value in the assay on Botrytis cinerea is listed as “no infection”.
`Cc1ccc(-c2ncc3c(n2)CCCC3)nc1-c1ccc(F)cc1` [2-(5-methyl-6-(4-fluorophenyl)pyridin-2-yl)-5,6,7,8-tetrahydroquinazoline, reference compound]: the infection in the assay with Alternaria solani is reported as 80%; in the assay with Plasmopara viticola, 70%. In addition, the “infection (infected leaf area)” value in assay [1] worked out at 80%. Further, the “infection (rust fungus development)” value in the assay on Puccinia recondita came out at 50%.
On to `c1ccc(-c2cccc(-c3ncc4c(n3)CCCCCC4)n2)cc1` [Example 11], for which the infection entry in the assay on Alternaria solani is “no infection”. Further, in the assay with Botrytis cinerea, the “infection (infected leaf area)” value is listed as “no infection”.
On to `Cc1ccc(-c2ncc3c(n2)CCCCC3)nc1-c1ccccc1` [Example 1, 2-(5-methyl-6-phenylpyridin-2-yl)-6,7,8,9-tetrahydro-5H-cycloheptapyrimidine], for which the infection result in the assay with Alternaria solani was “no infection”.
For the compound `Cc1ccc(-c2ncc3c(n2)CCCCC3)nc1-c1ccc(F)cc1` [Example 9], the infection entry in the assay on Alternaria solani is listed as “no infection”. The “infection (rust fungus development)” value in the assay with Puccinia recondita is listed as 20%.
